Assay results published in patent US20200405868A1, “GEL-FORMING POLYPEPTIDES” (priority 2018, published 2020).
One block for each substance: values may come before it. The star is where a group is joined. Palmitoyl = CCCCCCCCCCCCCCCC(=O)*

Test: Compound gel-forming ability in water (visual inspection, tube tapping assay, tilted tube assay);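 note: peptides mixed with de-ionized water at about 22-25 °C, judged after 20 min by eye plus tube tapping (10 taps, moves counted) and 90° tilt mobility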
Type: physicochemical
Details: for gel formation in aqueous solution, 6% / propensity to form gels, chimeric or mutated polypeptides, 6%: 6% w/w; for gel formation in aqueous solution, 11% / propensity to form gels, chimeric or mutated polypeptides, 11%: 11% w/w; for gel formation at 11% w/w: 11% w/w in water; for gel formation at 20% w/w: 20% w/w in water; for gel formation at 6% w/w: 6% w/w in water; for gel formation in aqueous solution, 20% / propensity to form gels, chimeric or mutated polypeptides, 20%: 20% w/w; for Physical property at 11% w/w: 11% w/w in aqueous solution, room temperature

Substance: Pal-KVQKLSAPVDPSSPHSY-miniPEG-RPKPQQFFGLM-NH2 [SEQ ID NO:215]
- gel formation in aqueous solution, 6% (Table 3): AS/IS (AS/IS for aqueous solution or insoluble)
- gel formation in aqueous solution, 11% (Table 3): SS (SS for semisolid gel)
- propensity to form gels, chimeric or mutated polypeptides, 6% (Table 5): AS/IS
- propensity to form gels, chimeric or mutated polypeptides, 11% (Table 5): SS (An ability to form semisolid gel is represented by an SS)

Substance: Pal-KVQKLSAPVDPSSPHSY-miniPEG-Y-(D-Ala)-GF(D-Leu)-NH2 [SEQ ID NO:212]
- gel formation at 3% w/w (3% w/w in water): semisolid gels
- gel formation in aqueous solution, 3% (Table 3, 3% w/w): SS (SS for semisolid gel)
- propensity to form gels, chimeric or mutated polypeptides, 3% (Table 5, 3% w/w): SS (An ability to form semisolid gel is represented by an SS)

Substance: Pal-KVQKLSAPVDPSSPHSY-miniPEG-Y-(D-Met)-FHLMD-NH2 [SEQ ID NO:210]
- gel formation at 6% w/w: semisolid or liquid gel
- gel formation at 11% w/w: semisolid gel
- gel formation in aqueous solution, 6% (Table 3): SS (SS for semisolid gel)
- gel formation in aqueous solution, 11% (Table 3): SS (SS for semisolid gel)
- propensity to form gels, chimeric or mutated polypeptides, 6% (Table 5): SS (An ability to form semisolid gel is represented by an SS)
- propensity to form gels, chimeric or mutated polypeptides, 11% (Table 5): SS (An ability to form semisolid gel is represented by an SS)

Substance: Pal-KVQNLSAPVDPSSPHSY-NH2 [SEQ ID NO:104]
- Physical property at 11% w/w (Table 2): AS/IS (AS/IS for aqueous solution or insoluble)

Substance: Pal-QKLAHQIYQFTDKDVAPRSKISPQGY-NH2 (Palmitoyl-QKLAHQIYQFTDKDVAPRSKISPQGY-NH2; SMILES CCCCCCCCCCCCCCCC(=O)N[C@@H](CCC(N)=O)C(=O)N[C@@H](CCCCN)C(=O)N[C@@H](CC(C)C)C(=O)N[C@@H](C)C(=O)N[C@@H](Cc1c[nH]cn1)C(=O)N[C@@H](CCC(N)=O)C(=O)N[C@H](C(=O)N[C@@H](Cc1ccc(O)cc1)C(=O)N[C@@H](CCC(N)=O)C(=O)N[C@@H](Cc1ccccc1)C(=O)N[C@H](C(=O)N[C@@H](CC(=O)O)C(=O)N[C@@H](CCCCN)C(=O)N[C@@H](CC(=O)O)C(=O)N[C@H](C(=O)N[C@@H](C)C(=O)N1CCC[C@H]1C(=O)N[C@@H](CCCNC(=N)N)C(=O)N[C@@H](CO)C(=O)N[C@@H](CCCCN)C(=O)N[C@H](C(=O)N[C@@H](CO)C(=O)N1CCC[C@H]1C(=O)N[C@@H](CCC(N)=O)C(=O)NCC(=O)N[C@@H](Cc1ccc(O)cc1)C(N)=O)[C@@H](C)CC)C(C)C)[C@@H](C)O)[C@@H](C)CC) [SEQ ID NO:103]
- Physical property at 11% w/w (Table 2): AS/IS (AS/IS for aqueous solution or insoluble)

Substance: Pal-SDAAVDTSSEITTKDLKEKKEVVEEAEN-NH2 [SEQ ID NO:268]
- gel formation at 11% w/w: semisolid gel
- gel formation in aqueous solution, 11% (Table 3): SS (SS for semisolid gel)
- propensity to form gels, chimeric or mutated polypeptides, 11% (Table 5): SS (An ability to form semisolid gel is represented by an SS)

Now from value to substance, other results behind:

- gel formation at 11% w/w: liquid gel
- gel formation at 20% w/w: liquid gel
Substance: Pal-KVQKLSAPVDPSSPHSY-miniPEG-Sar-RVYVHPA-NH2 [SEQ ID NO:216]

- gel formation in aqueous solution, 20% (Table 3): SS (SS for semisolid gel)
Substance: Pal-KVQKLSAPVDPSSPHSY-miniPEG-YNWNSFGLRF-NH2 [SEQ ID NO:208]
- propensity to form gels, chimeric or mutated polypeptides, 20% (Table 5): SS (An ability to form semisolid gel is represented by an SS)

- gel formation at 6% w/w: semisolid gel
- gel formation at 11% w/w: semisolid gel
- gel formation at 20% w/w: semisolid gel
- Physical property at 11% w/w (Table 1): SS (SS for semisolid gel)
- gel formation in aqueous solution, 6% (Table 3): SS (SS for semisolid gel)
- gel formation in aqueous solution, 11% (Table 3): SS (SS for semisolid gel)
- gel formation in aqueous solution, 20% (Table 3): SS (SS for semisolid gel)
Substance: Pal-RQSMNNFQGLRSFGCRFGTCTVQKLAHQIYQFTDKDKDNVAPRSKISPQGY-NH2 [SEQ ID NO:274]
- propensity to form gels, chimeric or mutated polypeptides, 6% (Table 5): SS (An ability to form semisolid gel is represented by an SS)
- propensity to form gels, chimeric or mutated polypeptides, 11% (Table 5): SS (An ability to form semisolid gel is represented by an SS)
- propensity to form gels, chimeric or mutated polypeptides, 20% (Table 5): SS (An ability to form semisolid gel is represented by an SS)

- Physical property at 11% w/w (Table 2): SS (SS for semisolid gel)
Substance: Pal-SSPHSY-NH2 [SEQ ID NO:119]

- gel formation in aqueous solution, 20% (Table 3): SS (SS for semisolid gel)
Substance: Pal-SSPHSY-miniPEG -SYS-Nle-EH-(D-Phe)-RWGKPV-NH2 [SEQ ID NO:223]
